# Reference: PubChem BioAssay (NCI)
# Several values for one entry are separate records, joined by “and”; a condition that tells them apart may be missing. Equal entries are not always repeated.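 Interpolation was linear, between the two tested concentrations surrounding the appropriate level; five concentrations were tested over 48 hours in 96-well plates. GI50 marks 50% less growth. Definition used: TGI = concentration required for complete inhibition of growth.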
# Experiments:
# Assay in all cases: NCI tumour cell line growth inhibition, 48 h
# 786-0 renal = system: 786-0 renal
# HCT-15 colon = system: HCT-15 colon
# HOP-18 NSCLC = system: HOP-18 NSCLC
# KM20L2 colon = system: KM20L2 colon
# NCI-H226 lung = system: NCI-H226 lung
# SF-295 CNS = system: SF-295 CNS
# SK-OV-3 ovarian = system: SK-OV-3 ovarian
# SN12C renal = system: SN12C renal
# SNB-78 CNS = system: SNB-78 CNS
# K-562 leukemia = system: K-562 leukemia
Compound,TGI (786-0 renal),TGI (HCT-15 colon),TGI (HOP-18 NSCLC),TGI (KM20L2 colon),TGI (NCI-H226 lung),TGI (SF-295 CNS),TGI (SK-OV-3 ovarian),TGI (SN12C renal),TGI (SNB-78 CNS),TGI (K-562 leukemia),GI50 (786-0 renal),GI50 (HCT-15 colon),GI50 (SF-295 CNS),GI50 (SK-OV-3 ovarian),GI50 (K-562 leukemia),GI50 (NCI-H226 lung),GI50 (SN12C renal)
FC(F)(F)c1ccc2nc(NCc3ccccc3)c(-c3ccccc3)nc2c1,53.1 µM,> 100 µM,> 100 µM,> 100 µM,> 100 µM,> 100 µM,> 100 µM,> 100 µM,> 100 µM,–,–,–,–,–,–,–,–
Cc1cc(C)nc(NS(=O)(=O)c2ccc(Nc3c4ccccc4nc4c(C(=O)N5CCN(CCO)CC5)cccc34)cc2)n1,> 100 µM,> 100 µM,> 100 µM,> 100 µM,> 100 µM,> 100 µM,> 100 µM,> 100 µM,> 100 µM,> 100 µM,–,–,–,–,–,–,–
CCC(C)(C)n1c(C)nc2c1C(=O)c1ccccc1C2=O,> 100 µM,> 100 µM,–,> 100 µM,> 100 µM,> 100 µM,> 100 µM,> 100 µM,> 100 µM,> 100 µM,–,–,–,–,–,–,–
Cc1cc2c(cc1C)[n+](=O)cc(C(=O)C/C(=N/NC(=S)NN)C(=O)Nc1cccc(C(F)(F)F)c1)n2[O-],> 100 µM,> 100 µM,> 100 µM,–,> 100 µM,> 100 µM,> 100 µM,> 100 µM,> 100 µM,> 100 µM,–,–,–,–,–,–,–
COc1cc(OC)c(OC)cc1/C=N/NC(=O)N/N=C/c1cc(OC)c(OC)cc1OC,> 100 µM,> 100 µM,> 100 µM,> 100 µM,> 100 µM,> 100 µM,> 100 µM,> 100 µM,> 100 µM,> 100 µM,–,–,–,–,–,–,–
COc1ccc2c(=O)oc3c(OC)cc(CCN(C)C)c4c(=O)oc1c2c34,14.2 µM and 1.51 µM,36.1 µM and 12.3 µM,27.6 µM,28.1 µM,33.2 µM and 50 µM,28.5 µM and 14.3 µM,33.7 µM and 15.9 µM,27.7 µM and 15.6 µM,35.9 µM,5.4 µM,3.66 µM and 0.762 µM,16.6 µM and 5.11 µM,15 µM and 6.99 µM,19.5 µM and 8.47 µM,–,–,–
CN(C)CCNC(=O)Cc1ccccc1Nc1c(Cl)cccc1Cl,25.7 µM,29.6 µM,–,13.9 µM,34.3 µM,30.1 µM,33.4 µM,31.4 µM,38.7 µM,37.5 µM,–,–,–,–,–,–,–
CC1=C(C(=O)Nc2ccccc2)C(c2ccc(Cl)c(Cl)c2)C(C(=O)Nc2ccccc2)=C(C)N1,25.7 µM,22.9 µM,–,29.8 µM,–,25.5 µM,31.6 µM,28.5 µM,53.8 µM,–,–,–,–,–,–,–,–
Cc1nc2c(N)ncnc2o1,> 100 µM,> 100 µM,> 100 µM,> 100 µM,> 100 µM,> 100 µM,> 100 µM,> 100 µM,> 100 µM,> 100 µM,–,–,–,–,–,–,–
CC(=O)N/C(=C\c1ccccc1/C=C(\NC(C)=O)c1nc2cc(C)c(C)cc2[nH]1)c1nc2cc(C)c(C)cc2[nH]1,46.6 µM,–,–,> 100 µM,> 100 µM,–,69.1 µM,35.3 µM,> 100 µM,95.5 µM,–,–,–,–,–,–,–
CO[C@@H]1CC[C@]2(C)OC[C@H](C)[C@@H]3C[C@@H](C)[C@@H](OC(C)=O)[C@@H]4[C@H]3[C@@H]2O[C@H]4C[C@@]1(C)O,> 100 µM,> 100 µM,–,–,> 100 µM,> 100 µM,> 100 µM,> 100 µM,–,> 100 µM,> 100 µM,> 100 µM,> 100 µM,> 100 µM,> 100 µM,> 100 µM,> 100 µM
O=C1c2cccc3cccc(c23)C(=O)N1CCN(CCO)CCO,> 100 µM,56.2 µM,> 100 µM,56.6 µM,40.1 µM,> 100 µM,> 100 µM,74.3 µM,> 100 µM,90.6 µM,–,–,–,–,–,–,–
C/C(=N\NC(N)=O)c1sc(-c2nc(C)c(/C(C)=N/NC(N)=O)s2)nc1C,> 100 µM,46.1 µM,> 100 µM,> 100 µM,> 100 µM,> 100 µM,> 100 µM,> 100 µM,> 100 µM,> 100 µM,–,–,–,–,–,–,–
C=C(C)C(C1C=C(CCC(C=O)=C(C)C)C(=O)O1)C1(OC)C=C(C)C(=O)O1 (configuration not stated),> 100 µM,> 100 µM,–,–,> 100 µM,> 100 µM,> 100 µM,> 100 µM,–,> 100 µM,> 100 µM,> 100 µM,> 100 µM,> 100 µM,73.2 µM,> 100 µM,> 100 µM
COC(=O)/C=C/c1cc(OC(C)=O)c2c(c1)C(C(=O)OC)C(c1ccc(OC(C)=O)c(OC(C)=O)c1)O2 (configuration not stated),> 56.8 µM,> 100 µM,–,–,23.2 µM,14.1 µM,> 73.9 µM,> 42.5 µM,–,> 100 µM,0.488 µM,0.0445 µM,0.222 µM,2.46 µM,0.0405 µM,3.68 µM,0.253 µM
O=[N+]([O-])c1ccccc1N=Nc1c(O)[nH]c2c(Cl)cc(Cl)cc12,39 µM,> 100 µM,–,–,> 100 µM,> 61 µM,> 100 µM,> 100 µM,–,> 100 µM,–,–,–,–,–,–,–
O=C(O)c1ccc(CNCc2ccccc2)cc1,> 100 µM,> 100 µM,–,–,> 100 µM,> 100 µM,> 100 µM,> 100 µM,–,> 100 µM,–,–,–,–,–,–,–
CCCCCCCCCCCC[N+]12CC[N+](CCN)(CC1)CC2,> 100 µM,–,> 100 µM,> 100 µM,> 100 µM,> 100 µM,> 100 µM,> 100 µM,> 100 µM,> 100 µM,–,–,–,–,–,–,–
CCN(Cc1c(F)cccc1OC)c1ccc(CO)c(Cl)c1,38.9 µM,41.5 µM,–,–,0.169 µM,1.88 µM,19.9 µM,26 µM,–,15.7 µM,16.7 µM,12.8 µM,0.0707 µM,3.65 µM,0.623 µM,0.0328 µM,12.8 µM
CNCCCNc1ccnc2cc(Cl)ccc12,> 100 µM,94.4 µM,–,–,87.5 µM,> 100 µM,60.8 µM,> 100 µM,–,> 100 µM,32.9 µM,23.3 µM,27.1 µM,21.9 µM,15.2 µM,25.9 µM,24.6 µM
